# Patent US20230398130A1, “METHODS AND COMPOSITIONS FOR DIFFERENTIATING STEM CELLS” (Massachusetts Institute of Technology, priority 2020, published 2023)
# Key:
# [1] = test system: ISC-enriched organoids; test: Primary screen, 384-well 2.5-D organoid differentiation (ENR+CD, 6 days): basal lysozyme secretion (LYZ.NS); assay type: cell-based, murine; settings: for Dose.FC.LYZ.NS: FC vs plate median; for Z.LYZ.NS: standard z score of FC; for Dose.FC.LYZ.NS (log 2 fold change): vs plate median
# Text: (§1) High-throughput screening.
# [2] = test system: ISC-enriched organoids; test: Primary screen, 384-well 2.5-D organoid differentiation (ENR+CD, 6 days): carbachol-induced lysozyme secretion (LYZ.S); assay type: cell-based, murine; settings: for Dose.FC.LYZ.S: FC vs plate median; for Dose.FC.LYZ.S (log 2 fold change): vs plate median
# Text: as §1
# [3] = test system: ISC-enriched organoids; test: Primary screen, 384-well 2.5-D organoid differentiation (ENR+CD, 6 days, Target Selective Inhibitor Library, vs whole-plate median): ATP (CellTiter-Glo 3D, CTG); settings: for Dose.FC.CTG: FC vs plate median; for Z.CTG: standard z score of FC; for Dose.FC.CTG (log 2 fold change): vs plate median
# [4] = primary screen, dose 0.08 uM, ENR+CD 6 days
# [5] = primary screen, dose 0.40 uM, ENR+CD 6 days
# [6] = primary screen, dose 2.00 uM, ENR+CD 6 days
# [7] = primary screen, dose 10.00 uM, ENR+CD 6 days
smiles,measurement,setting,value
Cc1cc([C@@H](C)Nc2ccccc2C(=O)O)c2nc(N3CCOCC3)cc(=O)n2c1 [AZD6482],Dose.FC.LYZ.NS,[1]; [4],0.108 log 2 fold change
same,Z.LYZ.NS,"[1]; primary screen, dose 0.08 uM",0.944
same,Dose.FC.LYZ.NS,[1]; [5],0.076 log 2 fold change
same,Z.LYZ.NS,"[1]; primary screen, dose 0.40 uM",0.660
same,Dose.FC.LYZ.NS,[1]; [6],−0.130 log 2 fold change
same,Z.LYZ.NS,"[1]; primary screen, dose 2.00 uM",−1.129
same,Dose.FC.LYZ.NS,[1]; [7],−0.248 log 2 fold change
same,Z.LYZ.NS,"[1]; primary screen, dose 10.00 uM",−2.160
same,Dose.FC.LYZ.S,[2]; [4],0.182 log 2 fold change
same,Dose.FC.LYZ.S,[2]; [5],0.156 log 2 fold change
same,Dose.FC.LYZ.S,[2]; [6],−0.114 log 2 fold change
same,Dose.FC.LYZ.S,[2]; [7],−0.253 log 2 fold change
same,Dose.FC.CTG,[3]; [4],0.240 log 2 fold change
same,Z.CTG,"[3]; primary screen, dose 0.08 uM",0.572
same,Dose.FC.CTG,[3]; [5],0.223 log 2 fold change
same,Z.CTG,"[3]; primary screen, dose 0.40 uM",0.533
same,Dose.FC.CTG,[3]; [6],−0.509 log 2 fold change
same,Z.CTG,"[3]; primary screen, dose 2.00 uM",−1.215
same,Dose.FC.CTG,[3]; [7],−1.203 log 2 fold change
same,Z.CTG,"[3]; primary screen, dose 10.00 uM",−2.874
CC1(COc2ccc3c(c2)ncn3-c2ccc3cccc(N4CCC(N)CC4)c3n2)COC1 [Crenolanib (CP-868596)],Dose.FC.LYZ.NS,"[1]; Dose 0.08 uM, ENR+CD, 6 days",0.121 log 2 fold change
same,Z.LYZ.NS,[1]; Dose 0.08 uM,1.051
same,Dose.FC.LYZ.NS,"[1]; Dose 0.40 uM, ENR+CD, 6 days",0.051 log 2 fold change
same,Z.LYZ.NS,[1]; Dose 0.40 uM,0.441
same,Dose.FC.LYZ.NS,"[1]; Dose 2.00 uM, ENR+CD, 6 days",0.122 log 2 fold change
same,Z.LYZ.NS,[1]; Dose 2.00 uM,1.065
same,Dose.FC.LYZ.NS,"[1]; Dose 10.00 uM, ENR+CD, 6 days",−0.224 log 2 fold change
same,Z.LYZ.NS,[1]; Dose 10.00 uM,−1.951
same,Dose.FC.LYZ.S,"[2]; Dose 0.08 uM, ENR+CD, 6 days",0.094 log 2 fold change
same,Dose.FC.LYZ.S,"[2]; Dose 0.40 uM, ENR+CD, 6 days",0.043 log 2 fold change
same,Dose.FC.LYZ.S,"[2]; Dose 2.00 uM, ENR+CD, 6 days",0.149 log 2 fold change
same,Dose.FC.LYZ.S,"[2]; Dose 10.00 uM, ENR+CD, 6 days",−0.292 log 2 fold change
same,Dose.FC.CTG,"[3]; Dose 0.08 uM, ENR+CD, 6 days",−0.069 log 2 fold change
same,Z.CTG,[3]; Dose 0.08 uM,−0.165
same,Dose.FC.CTG,"[3]; Dose 0.40 uM, ENR+CD, 6 days",−0.025 log 2 fold change
same,Z.CTG,[3]; Dose 0.40 uM,−0.059
same,Dose.FC.CTG,"[3]; Dose 2.00 uM, ENR+CD, 6 days",0.053 log 2 fold change
same,Z.CTG,[3]; Dose 2.00 uM,0.127
same,Dose.FC.CTG,"[3]; Dose 10.00 uM, ENR+CD, 6 days",−0.338 log 2 fold change
same,Z.CTG,[3]; Dose 10.00 uM,−0.808
COc1cc(OC)c(/C=C/S(=O)(=O)Cc2ccc(OC)c(NCC(=O)O)c2)c(OC)c1 [Rigosertib (ON-01910)],Z.LYZ.NS (standard z score),"[1]; Dose 0.08 uM, primary screen",−2.105
same,Dose.FC.LYZ.NS (log 2 fold change),"[1]; Dose 0.08 uM, primary screen",−0.242
same,Z.LYZ.NS (standard z score),"[1]; Dose 0.40 uM, primary screen",−1.831
same,Dose.FC.LYZ.NS (log 2 fold change),"[1]; Dose 0.40 uM, primary screen",−0.210
same,Z.LYZ.NS (standard z score),"[1]; Dose 2.00 uM, primary screen",−2.306
same,Dose.FC.LYZ.NS (log 2 fold change),"[1]; Dose 2.00 uM, primary screen",−0.265
same,Z.LYZ.NS (standard z score),"[1]; Dose 10.00 uM, primary screen",−2.107
same,Dose.FC.LYZ.NS (log 2 fold change),"[1]; Dose 10.00 uM, primary screen",−0.242
same,Dose.FC.LYZ.S (log 2 fold change),"[2]; Dose 0.08 uM, primary screen",−0.309
same,Dose.FC.LYZ.S (log 2 fold change),"[2]; Dose 0.40 uM, primary screen",−0.355
same,Dose.FC.LYZ.S (log 2 fold change),"[2]; Dose 2.00 uM, primary screen",−0.340
same,Dose.FC.LYZ.S (log 2 fold change),"[2]; Dose 10.00 uM, primary screen",−0.330
same,Z.CTG (standard z score),"[3]; Dose 0.08 uM, primary screen",−2.162
same,Dose.FC.CTG (log 2 fold change),"[3]; Dose 0.08 uM, primary screen",−0.905
same,Z.CTG (standard z score),"[3]; Dose 0.40 uM, primary screen",−3.069
same,Dose.FC.CTG (log 2 fold change),"[3]; Dose 0.40 uM, primary screen",−1.285
same,Z.CTG (standard z score),"[3]; Dose 2.00 uM, primary screen",−3.984
same,Dose.FC.CTG (log 2 fold change),"[3]; Dose 2.00 uM, primary screen",−1.668
same,Z.CTG (standard z score),"[3]; Dose 10.00 uM, primary screen",−2.022
same,Dose.FC.CTG (log 2 fold change),"[3]; Dose 10.00 uM, primary screen",−0.847
